Source: EPA's ToxValDB 9.5 (doi:10.2903/j.efsa.2016.4416)
In brackets after ≈: the same amount, converted by molar mass.

Tests used:
Neomysis kadiakensis = conditions: for LC50: acute, mortality
Folsomia candida = conditions: chronic/long-term; duration: 28 days; mortality
Oncorhynchus mykiss = conditions: for LC50: acute, duration: 96 hours, mortality
Tagia sp. = conditions: for NOEC: chronic/long-term, duration: 56 days, reproduction
Anas platyrhynchos = conditions: acute; oral; unspecified; mortality
Oryctolagus sp. = conditions: developmental; development
Apis mellifera = conditions: acute, mortality
Bibionidae = conditions: chronic/long-term; duration: 22 days; other

SMILES | NOAEL (Colinus virginianus; chronic, reproduction) | LC50 (Neomysis kadiakensis; duration: 48 hours) | LC50 (Neomysis kadiakensis; duration: 96 hours) | NOEC (Folsomia candida) | LC50 (Oncorhynchus mykiss) | NOEC (Tagia sp.) | NOAEL (Rattus norvegicus; subchronic, duration: 90 days, M) | LD50 (Colinus virginianus; acute, oral, mortality) | LD50 (Anas platyrhynchos) | NOAEL (Oryctolagus sp.) | NOEC (Neomysis kadiakensis; chronic/long-term, other) | LD50 (Apis mellifera; dermal) | LD50 (Apis mellifera; oral, unspecified) | NOEC (Oncorhynchus mykiss; chronic/long-term, duration: 28 days, growth) | LC50 (Tagia sp.; acute, duration: 14 days, mortality) | LD50 (Rattus norvegicus; acute, mortality) | NOAEL (Rattus norvegicus; chronic, duration: 2 years, histopathology: nonneoplastic) | NOAEL (Rattus norvegicus; reproduction developmental, organ weight) | NOEC (Bibionidae)
CS(=O)(=O)c1cc(C(F)(F)F)ccc1C(=O)C(C#N)C(=O)C1CC1 (configuration not stated) | 25 mg/kg-day | 24 µg/mL (≈ 66.8 µM) | 3.7 µg/mL (≈ 10.3 µM) | > 100 mg/kg | > 15 µg/mL | 9 mg/kg | – | – | – | – | – | – | – | – | – | – | – | – | –
CS(=O)(=O)c1cc(C(F)(F)F)ccc1C(=O)O [2-Methylsulfonyl-4-trifluoromethylbenzoic acid] | – | – | – | – | – | – | 769 mg/kg-day | – | – | – | – | – | – | – | – | – | – | – | –
CS(=O)(=O)c1cc(C(F)(F)F)ccc1C(=O)c1cnoc1C1CC1 [Isoxaflutole] | – | > 0.077 µg/mL | – | – | > 1.7 µg/mL | 8.9 mg/kg | – | > 2150 mg/kg-day | > 2150 mg/kg-day | 5 mg/kg-day | 0.001 mg/L | > 100 µg/piece | > 109 µg/piece | 0.08 mg/L | > 500 mg/kg | > 5000 mg/kg | 2 mg/kg-day | 2 mg/kg-day | 0.1 mg/L
